{
  "source": "ChEMBL document CHEMBL1201862",
  "about": "“PubChem BioAssay data set” (2004)",
  "assay_in_all_cases": "inhibition of tumour cell growth, NCI panel, 48 h",
  "key": {"[1]": {"test_system": "K562"}, "[2]": {"test_system": "UO-31"}, "[3]": {"test_system": "OVCAR-4"}, "[4]": {"test_system": "TK-10"}, "[5]": {"test_system": "DLD-1"}, "[6]": {"test_system": "HCC 2998"}, "[7]": {"test_system": "NCI/ADR-RES"}, "[8]": {"test_system": "HOP-92"}, "[9]": {"test_system": "IGROV-1"}, "[10]": {"test_system": "MDA-MB-231"}, "[11]": {"test_system": "UACC-62"}, "[12]": {"test_system": "M19-MEL"}, "[13]": {"test_system": "SW-620"}, "[14]": {"test_system": "SK-MEL-5"}, "[15]": {"test_system": "EKVX"}, "[16]": {"test_system": "RXF 393"}, "[17]": {"test_system": "RPMI-8226"}, "[18]": {"test_system": "NCI-H23"}, "[19]": {"test_system": "BT-549"}, "[20]": {"test_system": "CAKI-1"}},
  "note": "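Five compound concentrations were applied to cells in 96-well plates for 48 hours; endpoints were derived by simple linear interpolation of the resulting dose-response curve. Here, GI50 denotes the concentration required for 50% inhibition of growth.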 Active and inactive are the calls of the source. No stated cut-off is given here; in the data, active = GI50 up to about 1.1 µM and inactive = higher.",
  "data": [
    {"smiles": "COc1cc2c(cc1OC)C(SC)C(=O)N(Cc1cccc(OC)c1OC)CC2", "note": "(stereo not given)", "values": [
      {"measurement": "GI50", "setting": "[1]", "result": "0.501 µM (active)"},
      {"measurement": "GI50", "setting": "[2]", "result": "6.47 µM (inactive)"},
      {"measurement": "GI50", "setting": "[3]", "result": "17.5 µM (inactive)"},
      {"measurement": "GI50", "setting": "[4]", "result": "5.62 µM (inactive)"},
      {"measurement": "GI50", "setting": "[5]", "result": "2.01 µM (inactive)"},
      {"measurement": "GI50", "setting": "[6]", "result": "2.46 µM (inactive)"},
      {"measurement": "GI50", "setting": "[7]", "result": "2.73 µM (inactive)"},
      {"measurement": "GI50", "setting": "[8]", "result": "0.861 µM (active)"},
      {"measurement": "GI50", "setting": "[9]", "result": "2.77 µM (inactive)"},
      {"measurement": "GI50", "setting": "[10]", "result": "5.48 µM (inactive)"},
      {"measurement": "GI50", "setting": "[11]", "result": "0.731 µM (active)"},
      {"measurement": "GI50", "setting": "[12]", "result": "1.2 µM (inactive)"},
      {"measurement": "GI50", "setting": "[13]", "result": "1.49 µM (inactive)"},
      {"measurement": "GI50", "setting": "[14]", "result": "0.703 µM (active)"},
      {"measurement": "GI50", "setting": "[15]", "result": "4.7 µM (inactive)"},
      {"measurement": "GI50", "setting": "[16]", "result": "1.79 µM (inactive)"},
      {"measurement": "GI50", "setting": "[17]", "result": "3.61 µM (inactive)"},
      {"measurement": "GI50", "setting": "[18]", "result": "2.25 µM (inactive)"},
      {"measurement": "GI50", "setting": "[19]", "result": "0.755 µM (active)"},
      {"measurement": "GI50", "setting": "[20]", "result": "13.6 µM (inactive)"}
    ]}
  ]
}
